Assay results from PubChem BioAssay (NCI).
Values joined by “and” are separate entries in the source; they are usually repeats but may differ in a detail not shown here. Equal entries are not always repeated.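 Dose response: 5 concentrations. Exposure: 48 h. Format: 96-well plates. Endpoint: linear interpolation; highest concentration if not reached. The concentration for 50% growth inhibition is given as GI50. TGI: total growth inhibition.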

How the values were obtained:
Assay in all cases: growth of human tumour cells (NCI), 48 h
ACHN renal = test system: ACHN renal
HCT-116 colon = test system: HCT-116 colon
HT29 colon = test system: HT29 colon
IGROV1 ovarian = test system: IGROV1 ovarian
K-562 leukemia = test system: K-562 leukemia
KM12 colon = test system: KM12 colon
M14 melanoma = test system: M14 melanoma
OVCAR-8 ovarian = test system: OVCAR-8 ovarian
RPMI-8226 leukemia = test system: RPMI-8226 leukemia
SK-OV-3 ovarian = test system: SK-OV-3 ovarian

SMILES | GI50 (ACHN renal) [µM] | TGI (ACHN renal) | GI50 (HCT-116 colon) [µM] | TGI (HCT-116 colon) | GI50 (HT29 colon) [µM] | TGI (HT29 colon) | GI50 (IGROV1 ovarian) | TGI (IGROV1 ovarian) | GI50 (K-562 leukemia) [µM] | TGI (K-562 leukemia) | GI50 (KM12 colon) [µM] | TGI (KM12 colon) | GI50 (M14 melanoma) [µM] | TGI (M14 melanoma) | GI50 (OVCAR-8 ovarian) [µM] | TGI (OVCAR-8 ovarian) | GI50 (RPMI-8226 leukemia) [µM] | TGI (RPMI-8226 leukemia) | GI50 (SK-OV-3 ovarian) [µM] | TGI (SK-OV-3 ovarian)
Cc1nn(-c2ccccc2)c2c1C1C(=C(c3ccc(Cl)cc3)N2)C(=O)Nc2ccccc21 (stereo not given) | 3.51 | > 100 µM | 3.55 | 14.4 µM | 2.89 | 8.61 µM | 3.82 µM | 60.2 µM | 3.33 | 46.7 µM | 3.6 | 20.8 µM | 3.26 | 15.2 µM | 3.26 | 67 µM | 2.17 | 4.77 µM | 6.43 | > 100 µM
O=c1oc(-c2ccc(O)c(O)c2)cc2cc(O)cc(O)c12 | 45.3 | > 100 µM | 29.8 | > 100 µM | 71.5 | > 100 µM | 2.19 µM | 43.2 µM | 41.6 | > 100 µM | 28.6 | > 100 µM | 33.2 | 93.9 µM | 42.1 | > 100 µM | 20.8 | > 100 µM | > 100 | > 100 µM
CC1(CC(=O)O)OC2CCCCCC2O1 (stereo not given) (tested in a mixture with another compound) |  | > 100 µM |  | > 100 µM |  | > 100 µM |  | > 100 µM |  | > 100 µM |  | > 100 µM |  | > 100 µM |  | > 100 µM |  | > 100 µM |  | > 100 µM
c1ccc2c(c1)CCCc1cc3ccccc3nc1-2 |  | > 100 µM |  | > 100 µM |  | > 100 µM |  | > 100 µM |  | > 100 µM |  | > 100 µM |  | > 100 µM |  | > 100 µM |  | 99.2 µM |  | > 100 µM
COc1ccccc1C(=O)c1cnc(NC2CCN(S(C)(=O)=O)CC2)nc1N | 4.68 | > 25 µM | 4.52 | > 25 µM | 6.27 | > 25 µM | 8.05 µM | > 25 µM | > 25 | > 25 µM | 5.74 | > 25 µM | 10.2 | > 25 µM | 6.97 | > 25 µM | 6.57 | > 25 µM | > 25 | > 25 µM
COc1ccc([Se]c2ccc(OC)cc2OC)c(OC)c1 |  | > 100 µM |  | 46.5 µM |  | 29.7 µM |  | 59.9 µM |  | > 100 µM |  | > 100 µM |  | > 100 µM |  | > 100 µM |  | > 100 µM |  | 92.1 µM
C/C(=N\NS(=O)(=O)c1ccc(C)cc1)c1ccc[n+]([O-])n1 |  | > 100 µM |  | > 100 µM |  | > 100 µM |  | > 100 µM |  | > 100 µM |  | > 100 µM |  | > 100 µM |  | > 100 µM |  | > 100 µM |  | > 100 µM
O=C1c2c(O)cccc2C(C(=O)CCCCC(=O)C2c3cccc(O)c3C(=O)c3c(O)cccc32)c2cccc(O)c21 | 2.04 | 1.95 µM and 6.17 µM | 1.93 | 2.1 µM and 6.82 µM | 1.77 | 1.67 µM and 5.67 µM | 0.664 µM and 1.37 µM | 1.74 µM and 3.7 µM | 1.21 | 7.66 µM and 2.49 µM | 0.884 | 1.31 µM and 1.68 µM | 1.75 | 2.54 µM and 5.03 µM | 1.53 | 2.16 µM and 5.26 µM | 1.04 | 1.3 µM and 3.08 µM | 0.921 | 1.14 µM and 1.75 µM
CCOC(=O)/C=C1\Nc2ccccc2C(c2ccccc2)=NC1OC(C)=O (stereo not given) |  | > 100 µM |  | > 100 µM |  | > 100 µM |  | > 100 µM |  | > 100 µM |  | > 100 µM |  | > 100 µM |  | > 100 µM |  | > 100 µM |  | > 100 µM
Oc1cccc(-c2nc3ccccc3s2)c1 |  | > 100 µM |  | > 100 µM |  | 42.9 µM |  | 63.8 µM |  | > 100 µM |  | 48.6 µM |  | 60.4 µM |  | > 100 µM |  | > 100 µM |  | > 100 µM
COc1ccc(C2=CC(c3cc(OC)c(OC)c(OC)c3)n3ncnc3N2)cc1 (stereo not given) | 0.152 | 43.9 µM | 0.0401 | > 100 µM | 0.0381 | 11.2 µM | 0.0912 µM | 31.1 µM | 0.0359 | > 100 µM | 0.0402 | 18.9 µM | 0.0333 | > 100 µM | 0.0763 | 21.6 µM | 0.0439 | 81.3 µM | 0.0513 | 27 µM
CCOC(=O)c1[nH]c2c(c1C)-c1[nH]c(=O)c(S(=O)(=O)c3ccccc3)cc1SC2 | 47.3 | > 100 µM | 36.1 | > 100 µM | 40.7 | > 100 µM | 21.3 µM | > 100 µM | 23.2 | > 100 µM | 38.5 | > 100 µM | 38.8 | > 100 µM | 37.7 | > 100 µM | 44 | > 100 µM | 56.6 | > 100 µM
Nc1ncnc2occ(-c3ccc(NC(=O)Nc4cc(C(F)(F)F)cc(C(F)(F)F)c4)cc3)c12 | 2.94 | 12.6 µM | 2.63 | 5.64 µM | 1.83 | 5.29 µM | 3.05 µM | 9.94 µM | 0.925 | 9.21 µM | 0.0916 | 3.95 µM | 3.09 | 6.4 µM | 2.89 | 7.11 µM | 3.68 | 16.4 µM | 3.37 | 6.67 µM
Clc1ccc2c(Cl)ncnc2c1 |  | > 100 µM |  | > 100 µM |  | > 100 µM |  | > 100 µM |  | > 100 µM |  | > 100 µM |  | > 100 µM |  | > 100 µM |  | > 100 µM |  | > 100 µM
CC1OC(=O)N(CCCC=C2SCCCS2)C1=O (stereo not given) |  | > 100 µM |  | > 100 µM |  | > 100 µM |  | > 100 µM |  | > 100 µM |  | > 100 µM |  | > 100 µM |  | > 100 µM |  | > 100 µM |  | > 100 µM
